From ChEMBL document CHEMBL3585311, “Computational design and chemometric QSAR modeling of Plasmodium falciparum carbonic anhydrase inhibitors” (Bioorg Med Chem Lett, 2014)

Test: Inhibition of Plasmodium falciparum recombinant carbonic anhydrase

| SMILES | Ki [µM] |
| --- | --- |
| NS(=O)(=O)c1ccccc1NS(=O)(=O)c1c(F)c(F)c(F)c(F)c1F | 3.06 |
| NS(=O)(=O)c1nnc(NS(=O)(=O)C(F)(F)C(F)(F)C(F)(F)C(F)(F)C(F)(F)C(F)(F)C(F)(F)C(F)(F)F)s1 | 0.192 |
| NS(=O)(=O)c1ccc(NC(=S)NC(=O)Nc2ccc(Cl)c(Cl)c2)cc1 | 0.18 |
| NS(=O)(=O)c1ccc(CCNC(=O)c2cc3ccccc3oc2=O)cc1 | 13.2 |
| NS(=O)(=O)c1ccc(CNC(=O)c2cc3ccccc3oc2=O)cc1 | 5.05 |
| NS(=O)(=O)c1ccc(NC(=O)c2cc3ccccc3oc2=O)cc1 | 5.82 |
| NS(=O)(=O)c1nnc(NC(=O)c2c(F)c(F)c(F)c(F)c2F)s1 | 3.44 |
| COC(=O)NS(=O)(=O)c1ccc(NC(=S)Nc2ccc(S(N)(=O)=O)cc2)cc1 | 4.62 |
| COc1ccc2oc(=O)cc(CC(=O)Nc3ccccc3S(N)(=O)=O)c2c1 | 1.44 |
| COc1ccc2oc(=O)cc(CC(=O)Nc3cccc(S(N)(=O)=O)c3)c2c1 | 4.58 |
| COc1ccc2oc(=O)cc(CC(=O)NNc3ccc(S(N)(=O)=O)cc3)c2c1 | 3.51 |
| COc1ccc2oc(=O)cc(CC(=O)c3cc(C(F)(F)F)c(S(N)(=O)=O)cc3S(N)(=O)=O)c2c1 | 2.52 |
| NS(=O)(=O)c1ccc(/N=C/c2ccc(Br)c3ccccc23)cc1 | 4.16 |
| NS(=O)(=O)c1ccc(NC(=S)NC(=O)Nc2ccc(CC(Cl)Cl)cc2)cc1 | 0.756 |
| NS(=O)(=O)c1ccc(NC(=S)NC(=O)Nc2ccc(Cl)cc2)cc1 | 0.327 |
| Cc1cc(Cl)cc(C)c1NC(=O)NC(=S)Nc1ccc(S(N)(=O)=O)cc1 | 0.596 |
| Cc1cc(NC(=O)NC(=S)Nc2ccc(S(N)(=O)=O)cc2)c(Cl)c(C)c1Cl | 0.514 |
| CCc1c(Cl)ccc(NC(=O)NC(=S)Nc2ccc(S(N)(=O)=O)cc2)c1Cl | 0.464 |
| CC(Cl)(Cl)c1ccc(NC(=O)NC(=S)Nc2ccc(S(N)(=O)=O)cc2)cc1 | 0.452 |
| NS(=O)(=O)c1ccc(NC(=S)NC(=O)Nc2cccc(F)c2)cc1 | 0.424 |
| Cc1cc(F)c(C)c(NC(=O)NC(=S)Nc2ccc(S(N)(=O)=O)cc2)c1 | 0.518 |
| Cc1c(NC(=O)NC(=S)Nc2ccc(S(N)(=O)=O)cc2)cn2ncccc12 | 0.433 |
| Cc1ccc(NC(=O)NC(=S)Nc2ccc(S(N)(=O)=O)cc2)s1 | 0.505 |
| CC(C)(O)Nc1ccc(S(N)(=O)=O)cc1 | 2.22 |
| CC(F)(F)Nc1ccc(S(N)(=O)=O)cc1 | 0.74 |

| SMILES | Ki [µM] |
| --- | --- |
| NS(=O)(=O)c1ccc(Nc2cscn2)cc1 | 0.237 |
| NS(=O)(=O)c1ccc(Nc2ncsc2Cl)cc1 | 0.164 |
| NS(=O)(=O)c1ccc(Nc2nocc2Cl)cc1 | 0.164 |
| NS(=O)(=O)c1ccc(Nc2ncc(Cl)s2)cc1 | 0.164 |
| Cc1cc(C)cc(N(C(=O)Nc2ccccc2S(N)(=O)=O)c2ccccc2)c1 | 4.09 |
| Cc1ccc(C)c(N(C(=O)Nc2ccccc2S(N)(=O)=O)c2ccccc2)c1F | 3.32 |
| NS(=O)(=O)c1ccccc1NC(=O)N(c1ccccc1)c1ccc(F)cc1 | 2.26 |
| NS(=O)(=O)c1ccccc1NC(=O)N(c1ccccc1)c1cccc(Cl)c1 | 1.65 |
| COc1ccc2cncc(CC(=O)Nc3ccccc3S(N)(=O)=O)c2c1 | 2.66 |
| COc1cc(CC(=O)Nc2ccccc2S(N)(=O)=O)c2ccccc2c1Cl | 4.28 |
| NS(=O)(=O)c1nnc(NC(=S)NC(=O)Nc2ccccc2)s1 | 6.73 |
| NS(=O)(=O)c1cc(S(N)(=O)=O)c(C(F)(F)F)cc1NC(=O)c1cc2ccccc2oc1=O | 9.03 |
| NS(=O)(=O)c1ccccc1NC(=O)c1cc2ccccc2oc1=O | 18.5 |
| NS(=O)(=O)c1ccc(NC(=O)Nc2ccc(Cl)c(Cl)c2)cc1 | 5.58 |
| NS(=O)(=O)c1ccc(NNC(=O)c2cc3ccccc3oc2=O)cc1 | 4.06 |
| CCN(CC)C(=S)SNc1ccc(S(N)(=O)=O)cc1 | 3 |
| CCN(CC)C(=S)SNCc1ccc(S(N)(=O)=O)cc1 | 8.39 |
| NS(=O)(=O)c1ccccc1NC(=O)N(c1ccccc1)c1ccccc1 | 1.99 |
| NS(=O)(=O)c1ccc(CNC(=O)N(c2ccccc2)c2ccccc2)cc1 | 6.03 |
| NC(=S)Nc1ccc(S(N)(=O)=O)cc1 | 2.1 |
| NS(=O)(=O)c1ccc(NS(=O)(=O)c2ccc(NC(=O)N(c3ccccc3)c3ccccc3)cc2)cc1 | 16.5 |
| NS(=O)(=O)c1ccc(NC(=O)c2ccc(S(N)(=O)=O)cc2)cc1 | 3.05 |
| Cn1nc(S(N)(=O)=O)s/c1=N/C(=O)c1c(F)c(F)c(F)c(F)c1F | 6.87 |
| NS(=O)(=O)c1nnc(NS(=O)(=O)c2c(F)c(F)c(F)c(F)c2F)s1 | 2.58 |
